Measured values taken from patent publication US20220175761A1, “BI-LIGAND DRUG CONJUGATE AND USE THEREOF” (COHERENT BIOPHARMA (SUZHOU), LIMITED, priority 2019, published 2022).
Numbered stars: 1 amine (or outer) side, 2 acyl side, 3 side chain; on linkers, the order of the positions; unused ones are H or OH. Bridge positions count the residues as written; N and C are the ends. Square brackets hold non-standard residues; d marks the D form. Peptide text beside a SMILES is read from it. I, II: the chains in the order shown. * marks the point of attachment. ξ: configuration not given here. X5 = CCc1c2c(nc3ccc(O)cc13)-c1cc3c(c(=O)n1C2)COC(=O)[C@@]3(CC)OC(=O)OCc1ccc(NC(=O)COCC(=O)*)cc1; Hexanoyl(6-succinimido-3yl) = O=C1CC([*:1])C(=O)N1CCCCCC(=O)[*:2]; X4 = O=C([C@H](Cc1cnnn1CCOCCOCCOCCOCCOCCN[*:3])N[*:1])[*:2]; EuK = O=C(O)CC[C@H](NC(=O)N[C@@H](CCCCN*)C(=O)O)C(=O)O; Pteroyl = Nc1nc2ncc(CNc3ccc(C(=O)*)cc3)nc2c(=O)[nH]1; Dolaproine = CO[C@@H]([C@@H]1CCCN1)[C@@H](C)C(=O)O; Dil = CC[C@H](C)[C@H](NC)[C@@H](CC(=O)O)OC; γGlu = O=C(O)[C@H](CCC(=O)[*:2])N[*:1]; PABC = O=C(OCc1ccc(N[*:1])cc1)[*:2]; X1 = C[C@@H](N*)[C@@H](O)c1ccccc1; X2 = O=C(Cc1ccc(CN[*:1])cc1)[*:2]; PEG4 = NCCOCCOCCOCCOCCC(=O)O; NMeV = CN[C@H](C(=O)O)C(C)C; ξCit = NC(=O)NCCCC(N)C(=O)O; CO = O=C([*:1])[*:2]; ξV = CC(C)C(N)C(=O)O; Butyryl = CCCC(=O)*; Ahx = NCCCCCC(=O)O

How the values were obtained:
[1] = system: KB, LNCaP, T-47D, RT4 and NCI-H460 tumor cell lines; assay: Inhibition of tumor cell expansion, CCK8 (CB-50S); type: cell-based, human
Protocol: Cell lines: KB human oral epidermoid carcinoma cells, NCI-H460 human lung cancer cells, RT4 human bladder cancer cells, T-47D human breast cancer cells and LNCaP human prostate cancer cells
The cells were prepared in advance, digested with trypsin, collected and counted; with a complete cell culture medium, KB cells were diluted to 3.5×10^4 cells/ml, LNCaP cells were diluted to 8.0×10^4 cells/ml, T-47D cells were diluted to 1.2×10^4 cells/ml, NCI-H460 cells were diluted to 2.5×10^4 cells/ml, and RT4 cells were diluted to 1.2×10^5 cells/ml; to each well of 96-well plates, 100 μl of the diluted cell solution was added; and negative control and blank control wells were set on each plate. The 96-well plates added with the cells were placed in an incubator at 37° C., 5% CO2 for culturing overnight.
The samples were diluted with a culture medium to desired concentrations (see Table 16). […]
To each well, 15 μl (10% of the liquid volume in a well) of a color developing solution from CCK-8 was added; the plates were incubated at 37° C. for an appropriate time (try to keep the OD value in the range of 1.0-2.0); the covers of the 96-well plates were removed, and the plates were read at 450 nm on a microplate reader (Molecular Devices Spectra MAX Plus). […]

[2] = system: PANC-1 (human pancreatic cancer cells); assay: Inhibition of cell line proliferation, CCK8; type: cell-based
Protocol: (§1) Experimental operations: PANC-1 and CFPAC-1 cells were prepared in advance, counted, and plated in 96-well cell culture plates at a cell density of 4×10^4 cells/ml (100 μl/well); negative control and blank control wells were set on each plate. After adherent cell culture overnight, the diluted samples to be tested were added at 50 μl/well. The plates were placed in an incubator at 37° C., 5% CO2 and cultured for 68-72 hours. To each well, 15 μl (10% of the liquid volume in a well) of a color developing solution from CCK8 was added; and the plates were incubated at 37° C. for 45-70 minutes and each plate was read at 450 nm on a microplate reader. The data was edited using SoftMax Pro and a 4-P fitting curve was plotted.
(§2) Experimental operations: LNCaP, SK-BR-3, NCI-H226, CFPAC-1 and PANC-1 cells were prepared in advance and counted; with a culture medium (IMDM+10% FBS+1× L-Glutamine+1×P/S), the cells LNCaP, SK-BR-3 and CFPAC-1 were diluted to 4×10^4 cells/ml, NCI-H226 was diluted to 2.0×10^4 cells/ml and PANC-1 was diluted to 3.0×10^4 cells/ml; the diluted cell solution was plated in 96-well plates at 100 μl/well; and negative control and blank control wells were set on each plate. After adherent cell culture overnight, the diluted samples to be tested were added at 50 μl/well. The plates were placed in an incubator at 37° C., 5% CO2 and cultured for 68-72 hours. To each well, 15 μl (10% of the liquid volume in a well) of a color developing solution from CCK8 was added; and the plates were incubated at 37° C. for 45-70 minutes and each plate was read at 450 nm on a microplate reader. The data was edited using SoftMax Pro and a 4-P fitting curve was plotted.
as §2, with “Operations:” for “operations:”, “MDA-MB-468,” for “SK-BR-3, NCI-H226,”, “MDA-MB-468” for “SK-BR-3”, “cells/ml,” for “cells/ml, NCI-H226 was diluted to 2.0×10^4 cells/ml”

[3] = system: LNCaP (human prostate cancer cells); assay: Inhibition of cell line proliferation, CCK8; type: cell-based; conditions: LNCaP
Text: Since different cells have different sensitivity to a cell proliferation inhibitory toxicity of the payload in a ligand conjugate, the quantitative analysis may be interfered occasionally. A series of cell lines with known expression levels of receptors of different ligands were selected and tested for the response to inhibitory effects of the cell proliferation of a ligand conjugate and a single payload. The IC50 ratio of a single payload to that of a ligand conjugate in same cell line were taken to remove such interference.
as §1, with “LNCaP” for “PANC-1”, “22RV1” for “CFPAC-1”, “cells/ml and 2.0×10^4 cells/ml, respectively” for “cells/ml”, “plotted. […]” for “plotted.”

[4] = system: SCLC-21H (small cell lung cancer cells); assay: Tumor growth inhibition in subcutaneous xenograft model (CDX); type: in vivo, BALB/c-nude mice; conditions: SCLC-21H CDX
Protocol: Main CDX models: HPAF-II (human pancreatic cancer cells), NCI-H226 (human lung cancer cells) and SCLC-21H (small cell lung cancer cells)
The cells or tumor tissue mass were prepared and subcutaneously inoculated into the anterior right flank of BALB/c-nude mice. When the tumor volume expanded to 80-160 mm^3, a randomized grouping was performed, and a model control group and administration groups were set. The mice were administrated from the first day of grouping, wherein the administration dose was adjusted according to the latest weight measurement. The mice were administrated via tail vein injection at an administration volume of 10 μl/g. After grouping and administration, the effects of tumor growth and treatment on normal behaviors of animals, specifically including the activity of experimental animals, food intake and drinking status, weight gain or loss status, and other abnormal conditions in eyes, hair, etc., were monitored. After grouping and administration, the weight of mice was measured twice a week to calculate the rate of weight change; at the same time, the long diameter and short diameter of the tumor were measured with a vernier caliper, and the tumor volume, relative tumor proliferation rate, tumor volume inhibition rate and other indicators were calculated. The formula of tumor volume is TV=0.5 a×b^2, wherein a is […] the long diameter of a tumor and b is the short diameter of a tumor.

[5] = system: MDA-MB-468 (human breast cancer cells); assay: Inhibition of cell line proliferation, CCK8; type: cell-based
Protocol: (§3) Experimental Operations: LNCaP, SK-BR-3, MDA-MB-468 and CFPAC-1 cells were prepared in advance and counted; with a culture medium (IMDM+10% FBS+1× L-Glutamine+1×P/S), the cells LNCaP, SK-BR-3, MDA-MB-468 and CFPAC-1 were diluted to 4×10^4 cells/ml; the diluted cell solution was plated in 96-well plates at 100 µl/well; and negative control and blank control wells were set on each plate. After adherent cell culture overnight, the diluted samples to be tested were added at 50 μl/well. The plates were placed in an incubator at 37° C., 5% CO2 and cultured for 68-72 hours. To each well, 15 μl (10% of the liquid volume in a well) of a color developing solution from CCK8 was added; and the plates were incubated at 37° C. for 45-70 minutes and each plate was read at 450 nm on a microplate reader. The data was edited using SoftMax Pro and a 4-P fitting curve was plotted.
as §3, with “Operations: LNCaP, MDA-MB-468, CFPAC-1 and PANC-1” for “Operations: LNCaP, SK-BR-3, MDA-MB-468 and CFPAC-1”, “CFPAC-1 and PANC-1 cells were” for “MDA-MB-468 and CFPAC-1 cells were”, “cells LNCaP, MDA-MB-468 and” for “cells LNCaP, SK-BR-3, MDA-MB-468 and”, “to 4×10^4 cells/ml, and PANC-1 was diluted to 3.0×10^4 cells/ml; the” for “to 4×10^4 cells/ml; the”, “at 100 μl/well; and negative” for “at 100 µl/well; and negative”
Experimental operations: NCI-H226, CFPAC-1 and MDA-MB-468 cells were prepared in advance and counted; MDA-MB-468 and CFPAC-1 cells were plated at a density of 2×10^4 cells/ml (100 μl/well) and NCI-H226 cells were plated at a density of 1×10^4 cells/ml (100 μl/well) in 96-well plates; and negative control and blank control wells were set on each plate. After adherent cell culture overnight, the diluted samples to be tested were added at 50 μl/well. The plates were placed in an incubator at 37° C., 5% CO2 and cultured for 68-72 hours. To each well, 15 μl (10% of the liquid volume in a well) of a color developing solution from CCK8 was added; and the plates were incubated at 37° C. for 45-70 minutes and each plate was read at 450 nm on a microplate reader. The data was edited using SoftMax Pro and a 4-P fitting curve was plotted.

[6] = system: CFPAC-1 (human pancreatic cancer cells); assay: Inhibition of cell line proliferation, CCK8; type: cell-based
Protocol: as §1, §2, §3
as §3, with “Operations: LNCaP, MDA-MB-468, CFPAC-1 and PANC-1” for “Operations: LNCaP, SK-BR-3, MDA-MB-468 and CFPAC-1”, “CFPAC-1 and PANC-1 cells were” for “MDA-MB-468 and CFPAC-1 cells were”, “cells LNCaP, MDA-MB-468 and” for “cells LNCaP, SK-BR-3, MDA-MB-468 and”, “to 4×10^4 cells/ml, and PANC-1 was diluted to 3.0×10^4 cells/ml; the” for “to 4×10^4 cells/ml; the”, “at 100 μl/well; and negative” for “at 100 µl/well; and negative”
Experimental operations: NCI-H226, CFPAC-1 and MDA-MB-468 cells were prepared in advance and counted; MDA-MB-468 and CFPAC-1 cells were plated at a density of 2×10^4 cells/ml (100 μl/well) and NCI-H226 cells were plated at a density of 1×10^4 cells/ml (100 μl/well) in 96-well plates; and negative control and blank control wells were set on each plate. After adherent cell culture overnight, the diluted samples to be tested were added at 50 μl/well. The plates were placed in an incubator at 37° C., 5% CO2 and cultured for 68-72 hours. […]

| Compound | inhibitory effect on growth and expansion of tumor cell lines ([1]; 72 hours, CCK-8) | IC50 compared between cell lines ([1]; KB, LNcap, T-47D and RT4 versus NCI-H460) | IC50 (MMAE)/IC50 (conjugate) ([2]; PANC-1) | IC50 ([2]; PANC-1, 68-72 hours, CCK8) | IC50 ratio (MMAE/conjugate) [3] | IC50 ([3]; 68-72 hours, CCK8) | anti-tumor growth effect (in words) [4] | IC50 (MMAE)/IC50 (conjugate) ([5]; MDA-MB-468) | IC50 ([5]; MDA-MB-468, 68-72 hours, CCK8) | IC50 (MMAE)/IC50 (conjugate) ([6]; CFPAC-1) | IC50 ([6]; CFPAC-1, 68-72 hours, CCK8) |
| --- | --- | --- | --- | --- | --- | --- | --- | --- | --- | --- | --- |
| CCc1c2c(nc3ccc(O)cc13)-c1cc3c(c(=O)n1C2)COC(=O)[C@@]3(CC)OC(=O)OCc1ccc(NC(=O)COCC(=O)NCCOCCOCCOCCOCCOCCn2nncc2C[C@H](NC(=O)CC[C@H](NC(=O)c2ccc(NCc3cnc4[nH]c(N)nc(=O)c4n3)cc2)C(=O)O)C(=O)N[C@@H](CCCCN)C(=O)N[C@@H](CCC(=O)O)C(=O)N[C@@H](Cc2ccccc2)C(=O)N[C@@H](CC(C)C)C(=O)N[C@@H](Cc2cnc[nH]2)C(=O)N2CCC[C@H]2C(=O)N[C@@H](CO)C(=O)N[C@@H](CCCCN)C(=O)NC(C(=O)N[C@@H](CC(=O)O)C(=O)N[C@@H](CC(C)C)C(=O)N2CCC[C@H]2C(=O)N[C@@H](CCCNC(=N)N)C(=O)O)C(C)C)cc1 (some centres unmarked) [CB-50S] ({Pteroyl-γGlu}-[X4](X5)KEFLHPSK[ξV]DLPR-OH) | has an inhibitory effect | significantly lower |  |  |  |  |  |  |  |  |  |
| CCCC(=O)N[C@@H](Cc1ccccc1)C(=O)N[C@H]1CSSC[C@@H](C(=O)N[C@H](C(=O)N[C@@H](CCCCNC(=O)[C@H](CCC(=O)O)NC(=O)CCOCCOCCOCCOCCNC(=O)[C@H](CCC(=O)O)NC(=O)[C@H](CSC2CC(=O)N(CCCCCC(=O)N[C@H](C(=O)NC(CCCNC(N)=O)C(=O)Nc3ccc(COC(=O)N(C)[C@H](C(=O)N[C@H](C(=O)N(C)[C@@H]([C@@H](C)CC)[C@@H](CC(=O)N4CCC[C@H]4[C@H](OC)[C@@H](C)C(=O)N[C@H](C)[C@@H](O)c4ccccc4)OC)C(C)C)C(C)C)cc3)C(C)C)C2=O)NC(=O)CCCCCNC(=O)[C@H](CCCCN)NC(=O)[C@H](CC(=O)O)NC(=O)[C@H](CC(=O)O)NC(=O)Cc2ccc(CNC(=O)NCCCC[C@H](NC(=O)N[C@@H](CCC(=O)O)C(=O)O)C(=O)O)cc2)C(N)=O)[C@@H](C)O)NC(=O)[C@H]([C@@H](C)O)NC(=O)[C@H](CCCCN)NC(=O)[C@H](Cc2c[nH]c3ccccc23)NC(=O)[C@H](Cc2ccc(O)cc2)NC1=O (some centres unmarked) [CB-1820] (I: Butyryl-FCYWKTCTK-NH2 / II: {EuK-CO}-[X2]DDK[Ahx]CE[PEG4]E / III: V[ξCit][PABC][NMeV]V[Dil][Dolaproine]-X1; disulfide I:2-I:7; amide I:9-II:C; linker II:6-III:N via Hexanoyl(6-succinimido-3yl)) |  |  | 0.0364 | 0.055 µM | 0.1429 | 0.021 µM | obvious anti-tumor growth effect | 0.0323 | 0.062 µM | 0.0421 | 0.356 µM |
